Key:
[1] = target: T1, PDE9 (PDE9A) (Homo sapiens, UniProt O76083); experiment: PDE assay, recombinant human PDE9A; format: biochemical; conditions: substrate about 12 nM [3H]-cGMP and 0.1 μM cGMP
T1 construct: FLAG (pFLAG-CMV-2) (N); made in house; host or cells: COS-7 cells, 100,000 x g supernatant of the sonicate, not purified
Method: Based on the information of cDNA sequence of human PDE9A (Genbank/EMBL Accession No. AF048837) (Fisher et al., J. Biol. Chem., 1998, vol. 273, pp. 15559-15564, […]), a cDNA encoding human PDE9A was cloned by PCR method. Using this cDNA, a recombinant protein of human PDE9A was prepared as follows.
A DNA fragment comprising a cDNA encoding human PDE9A was linked to pFLAG-CMV-2 (available from Kodak), to give a vector plasmid for expression of human PDE9A, with a flag tag peptide added to the N-terminus. COS-7 cells were transfected by these vector plasmids, and the cells were cultured in Dulbecco's modified Eagle medium containing 10% bovine fetal serum for about 24 to 48 hours. After incubation, the cells were collected, and washed with Phosphate buffered saline, and re-suspended in a solution buffer (20 mM Tris-HCl, pH7.5, 2 mM magnesium acetate, 0.3 mM calcium chloride, 1 mM dithiothreitol, 1.3 mM benzamidine). The cells were homogenized by ultrasonic treatment, and subjected to centrifugation (100,000×g, 4° C., 1 hour) to collect a supernatant.
This supernatant containing the recombinant human PDE9A was used for PDE assay as a PDE9 (PDE9A) enzyme solution. […]

[2] = target: PDE4; experiment: PDE assay, PDE4 enzyme solution from dog lung; format: biochemical, mixed-breed dog; conditions: substrate about 4.8 nM [3H]-cAMP and 1 μM cAMP
Method: These fractions were collected and glycerol was added thereto to become 50%, and the mixture was stored at −20° C.

[3] = tested on: PDE10 (PDE10A); experiment: Measurement of PDE10 inhibitory activity (radiolabeled nucleotide PDE assay); format: biochemical, bovine; conditions: versus PDE1, 2, 3, 4, 5, 6, 7, 8, 9 and 11; IC50 value of 1/100 or less
Text: (1) Enzyme Preparation of PDE10 (PDE10A)
According to the methods described in Fujishige et al. (Fujishige et al., Eur. J. Biochem., vol. 266, pp. 1118-1127, 1999; and Mukai et al., Br. J. Pharmacol., vol. 111, pp. 389-390, 1994), the enzyme PDE10A was isolated and prepared as follows.
At first, corpus striatum was excised from bovine whole brain (Japanese Black Cattle, purchased from Tokyo Shibaura Zoki, co., Ltd.), and washed with ice-cold saline (0.9% sodium chloride). After the tissues were cut in a proper size, it was frozen by liquid nitrogen, and stored at −80° C. […]
The PDE assay was performed using the enzyme solution obtained in the above (1), and inhibitory activities of the compounds on PDE10 (PDE10A) were measured. […]
After the reaction was carried out while keeping the temperature at 37° C. for 30 minutes, the reaction was stopped by boiling the reaction mixture for 2 minutes, and further added thereto was 100 μl of snake venom (Crotalus atrox snake venom 1 mg/ml) and the temperature was kept at 37° C. for 30 minutes. […] Scintillation cocktail was added to each of the eluates, and the radioactivity was measured by scintillation counter. From them, PDE activity taking cAMP as a substrate (an activity to hydrolyze cAMP) was measured. […]

T1 sequence (O76083 whole entry): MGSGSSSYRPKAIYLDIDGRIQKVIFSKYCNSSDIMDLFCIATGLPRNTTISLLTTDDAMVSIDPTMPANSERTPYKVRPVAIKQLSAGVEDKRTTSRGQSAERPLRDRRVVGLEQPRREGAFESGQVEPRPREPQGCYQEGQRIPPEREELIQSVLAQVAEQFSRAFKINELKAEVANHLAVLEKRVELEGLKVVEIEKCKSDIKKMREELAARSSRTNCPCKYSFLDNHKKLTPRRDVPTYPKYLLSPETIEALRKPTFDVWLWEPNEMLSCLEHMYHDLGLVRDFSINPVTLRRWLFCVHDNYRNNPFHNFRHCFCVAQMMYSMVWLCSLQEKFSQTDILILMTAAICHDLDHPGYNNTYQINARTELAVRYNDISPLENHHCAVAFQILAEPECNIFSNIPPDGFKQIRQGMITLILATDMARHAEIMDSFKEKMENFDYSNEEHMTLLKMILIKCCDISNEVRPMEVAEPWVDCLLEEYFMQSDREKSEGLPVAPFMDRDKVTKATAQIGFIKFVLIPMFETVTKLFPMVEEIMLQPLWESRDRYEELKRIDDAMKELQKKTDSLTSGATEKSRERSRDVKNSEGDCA

Q: With COc1ccc(-c2cc(N3CCCC3)nc(/C=C/c3nc(-n4ccnc4)c4ccccc4n3)n2)cc1OC [Compound A, 2-{(E)-2-[4-(1-imidazolyl)-quinazolin-2-yl]}ethenyl-4-(3,4-dimethoxy)phenyl-6-(pyrrolidin-1-yl)pyrimidine] as the molecule, how does the IC50 [1] read?
A: The IC50 was > 1000 nM.

Q: What about the IC50 [2] of the same molecule?
A: The IC50 was 160 nM.

Q: What about the “inhibitory activity on PDE10 as compared to other PDE families (selectivity)” value [3] of the same molecule?
A: Its value is ≥ 100 times.

From US8338420B1, “Treatment of Parkinson's disease and enhancement of dopamine signal using PDE 10 inhibitor” (Mitsubishi Tanabe Pharma Corporation, priority 2002, dated 2012)
